In US20190152992A1, “BENZODIOXANE DERIVATIVES AND THEIR PHARMACEUTICAL USE” (Orion Corporation, priority 2016, published 2019) one finds IC50 and Kb data, which are given here for 20 compounds.

As a reminder, the IC50 is the concentration needed to halve the response being measured.

Counter-ions that a name gives are not always drawn. Some results are limits rather than exact numbers.

The target in one assay is T1, human alpha2A receptors (Homo sapiens, UniProt P08913).
T1 sequence (P08913 1-465): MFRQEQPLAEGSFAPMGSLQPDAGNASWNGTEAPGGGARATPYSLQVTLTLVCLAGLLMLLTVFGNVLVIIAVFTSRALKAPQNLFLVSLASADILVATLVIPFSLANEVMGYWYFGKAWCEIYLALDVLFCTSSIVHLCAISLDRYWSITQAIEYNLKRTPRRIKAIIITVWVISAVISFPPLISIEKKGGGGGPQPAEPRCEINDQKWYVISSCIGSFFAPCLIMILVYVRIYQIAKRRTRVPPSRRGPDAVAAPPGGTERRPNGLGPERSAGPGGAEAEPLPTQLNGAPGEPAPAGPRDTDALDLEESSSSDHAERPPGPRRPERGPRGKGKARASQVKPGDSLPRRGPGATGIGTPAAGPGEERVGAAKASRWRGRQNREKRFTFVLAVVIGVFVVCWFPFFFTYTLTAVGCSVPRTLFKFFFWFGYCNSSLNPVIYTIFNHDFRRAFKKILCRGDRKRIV
Nature of the assay: cell-based.

In the next assay the target is T2, human alpha2C receptors (Homo sapiens, UniProt P18825).
T2 sequence (P18825 1-462): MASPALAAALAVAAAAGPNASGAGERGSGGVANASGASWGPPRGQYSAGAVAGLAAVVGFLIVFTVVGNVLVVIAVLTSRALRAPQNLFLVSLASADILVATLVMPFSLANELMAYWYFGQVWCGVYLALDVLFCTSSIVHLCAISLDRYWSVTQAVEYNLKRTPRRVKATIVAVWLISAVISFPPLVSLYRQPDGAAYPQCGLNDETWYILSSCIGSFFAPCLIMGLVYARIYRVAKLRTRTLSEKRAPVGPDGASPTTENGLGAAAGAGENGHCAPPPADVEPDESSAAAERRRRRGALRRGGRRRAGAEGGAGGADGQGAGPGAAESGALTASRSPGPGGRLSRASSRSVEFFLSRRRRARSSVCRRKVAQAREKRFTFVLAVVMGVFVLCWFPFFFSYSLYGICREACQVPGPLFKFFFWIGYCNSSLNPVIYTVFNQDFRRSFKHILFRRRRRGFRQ
As to the kind of experiment: Determination of alpha2C antagonistic activity in vitro (FLIPR calcium assay). The following applies: for Kb: Alpha 2C Adrenaline Kb, Kb calculated from IC50 with the Cheng-Prusoff equation, adrenaline as agonist, CHO cells, human alpha2C.

On to `O=C1C2CCCC2C(=O)N1[C@H]1CCCN(C[C@H]2COc3ccccc3O2)C1` (stereo partly drawn) [example 92, 2-((S)-1-(((S)-2,3-Dihydrobenzo[b][1,4]dioxin-2-yl)methyl)piperidin-3-yl)tetrahydrocyclopenta[c]pyrrole-1,3(2H,3aH)-dione hydrochloride], for which the IC50 at human alpha2A receptors is more than 10 µM; at human alpha2C receptors, 0.15 nM. Besides, the results for the Kb on human alpha2A receptors and on human alpha2C receptors were more than 449 nM and 0.02 nM, respectively.

Take `CCN1CC(=O)N([C@H]2CCCN(C[C@H]3COc4ccccc4O3)C2)C1=O` [example 105, 3-((S)-1-(((S)-2,3-Dihydrobenzo[b][1,4]dioxin-2-yl)methyl)-piperidin-3-yl)-1-ethylimidazolidine-2,4-dione]: at human alpha2A receptors, the IC50 was more than 10 µM and the Kb was more than 449 nM. For the same compound, at human alpha2C receptors, the IC50 was 3.27 nM and the Kb is 0.33 nM.

At human alpha2A receptors, `CCN1CCN([C@H]2CCCN(C[C@H]3COc4ccccc4O3)C2)C1=O` [example 16, 1-((S)-1-(((S)-2,3-Dihydrobenzo[b][1,4]dioxin-2-yl)methyl)piperidin-3-yl)-3-ethylimidazolidin-2-one] yielded a half-inhibitory concentration (IC50) of more than 10 µM and a Kb of more than 449 nM. In addition, on human alpha2C receptors, the IC50 worked out at 0.57 nM and the Kb was 0.06 nM.

On to `CC1CCN([C@H]2CCCN(C[C@H]3COc4ccccc4O3)C2)C1=O` (single isomer, unassigned; diastereomer 1) [example 98], for which the concentration for half-maximal inhibition (IC50) at human alpha2A receptors is more than 10 µM; on human alpha2C receptors, 9.26 nM. Further, the Kb was more than 449 nM at human alpha2A receptors and 0.93 nM at human alpha2C receptors.

On human alpha2A receptors, `Cc1nc2ccccc2n1[C@H]1CCCN(C[C@H]2COc3ccccc3O2)C1` [example 150, 1-((S)-1-(((S)-2,3-Dihydrobenzo[b][1,4]dioxin-2-yl)methyl)piperidin-3-yl)-2-methyl-1H-benzo[d]imidazole] displayed an IC50 of 4.48 µM and a Kb of 201 nM. Besides, at human alpha2C receptors, the IC50 was less than 0.1 nM and the Kb is less than 0.01 nM.

As to `C[C@H]1NC(=O)N([C@H]2CCCN(C[C@H]3COc4ccccc4O3)C2)C1=O` [example 112, (R)-3-((S)-1-(((S)-2,3-Dihydrobenzo[b][1,4]dioxin-2-yl)methyl)-piperidin-3-yl)-5-methylimidazolidine-2,4-dione], the IC50 was more than 10 µM against human alpha2A receptors and 0.16 nM on human alpha2C receptors. The Kb on human alpha2A receptors was more than 449 nM; at human alpha2C receptors it was 0.02 nM.

Take `CC(=O)N1CCC(N2C(=O)C(=O)N([C@H]3CCCN(C[C@H]4COc5ccccc5O4)C3)C2=O)CC1` [example 139, 1-(1-Acetylpiperidin-4-yl)-3-((S)-1-(((S)-2,3-dihydrobenzo[b][1,4]-dioxin-2-yl)methyl)piperidin-3-yl)imidazolidine-2,4,5-trione]: at human alpha2A receptors, the IC50 stood at 9.83 µM and the Kb was 441 nM. In addition, on human alpha2C receptors, the IC50 came to 0.113 nM and the Kb is 0.012 nM.

On human alpha2A receptors, `CC(C)(C)C1CN([C@H]2CCCN(C[C@H]3COc4ccccc4O3)C2)C(=O)O1` (stereo partly drawn) [example 18, 5-tert-Butyl-3-((S)-1-(((S)-2,3-dihydrobenzo[b][1,4]dioxin-2-yl)methyl)piperidin-3-yl)oxazolidin-2-one] showed an IC50 of 8.51 µM and a Kb of 382 nM. Also, at human alpha2C receptors, the IC50 was 0.235 nM and the Kb is 0.024 nM.

As to `CN1C(=O)N([C@H]2CCCN(C[C@H]3COc4ccccc4O3)C2)C(=O)C1(C)C` [example 111, 3-((S)-1-(((S)-2,3-Dihydrobenzo[b][1,4]dioxin-2-yl)methyl)-piperidin-3-yl)-1,5,5-trimethylimidazolidine-2,4-dione], at human alpha2A receptors, the IC50 was more than 10 µM and the Kb is more than 449 nM. Further, at human alpha2C receptors, the IC50 came out at 0.87 nM and the Kb is 0.09 nM.

In the case of `CC1(c2ccccc2)CC(=O)N([C@H]2CCCN(C[C@H]3COc4ccccc4O3)C2)C1=O` (stereo partly drawn) [example 35, 1-((S)-1-(((S)-2,3-Dihydrobenzo[b][1,4]dioxin-2-yl)methyl)piperidin-3-yl)-3-methyl-3-phenylpyrrolidine-2,5-dione], on human alpha2A receptors, 0.193 µM corresponded to half-maximal inhibition (IC50) and the Kb was found to be 9 nM. The IC50 at human alpha2C receptors is less than 0.01 nM.

In the case of `CN(C)C(=O)CN1C(=O)N([C@H]2CCCN(C[C@H]3COc4ccccc4O3)C2)C(=O)C12CC2` [example 124, 2-(6-((S)-1-(((S)-2,3-Dihydrobenzo[b][1,4]dioxin-2-yl)methyl)-piperidin-3-yl)-5,7-dioxo-4,6-diazaspiro[2.4]heptan-4-yl)-N,N-dimethylacetamide], at human alpha2A receptors, the IC50 is more than 10 µM and the Kb is more than 449 nM. Also, at human alpha2C receptors, the IC50 is 1.47 nM and the Kb is 0.131 nM.

Take `O=C1C2CC2C(=O)N1[C@H]1CCCN(C[C@H]2COc3ccccc3O2)C1` (stereo partly drawn) [example 95, 3-((S)-1-(((S)-2,3-Dihydrobenzo[b][1,4]dioxin-2-yl)methyl)piperidin-3-yl)-3-azabicyclo[3.1.0]hexane-2,4-dione]: the IC50 was 9.44 µM against human alpha2A receptors and 0.433 nM on human alpha2C receptors. The Kb at human alpha2A receptors was 424 nM; at human alpha2C receptors it was 0.044 nM.

As to `O=C1C2=C(CCCC2)C(=O)N1[C@H]1CCCN(C[C@H]2COc3ccccc3O2)C1` [example 94, 2-((S)-1-(((S)-2,3-Dihydrobenzo[b][1,4]dioxin-2-yl)methyl)-piperidin-3-yl)-4,5,6,7-tetrahydro-1H-isoindole-1,3(2H)-dione hydrochloride], the IC50 was more than 10 µM against human alpha2A receptors and less than 0.1 nM at human alpha2C receptors. For the same compound, the results for the Kb at human alpha2A receptors and on human alpha2C receptors were more than 449 nM and less than 0.01 nM, respectively.

At human alpha2A receptors, `O=C1c2cccc(F)c2C(=O)N1[C@H]1CCCN(C[C@H]2COc3ccccc3O2)C1` [example 63, 2-((S)-1-(((S)-2,3-Dihydrobenzo[b][1,4]dioxin-2-yl)methyl)piperidin-3-yl)-4-fluoroisoindoline-1,3-dione hydrochloride] yielded an IC50 of more than 10 µM and a Kb of more than 449 nM. Also, at human alpha2C receptors, the IC50 was less than 0.1 nM and the Kb is less than 0.01 nM.

On to `CC(C)N1C(=O)C(=O)N([C@H]2CCCN(C[C@H]3COc4ccccc4O3)C2)C1=O` [example 130, 1-((S)-1-(((S)-2,3-Dihydrobenzo[b][1,4]dioxin-2-yl)methyl)-piperidin-3-yl)-3-isopropylimidazolidine-2,4,5-trione], for which, at human alpha2A receptors, half-maximal inhibition (IC50) was put at 6.59 µM and the Kb was determined as 296 nM. On human alpha2C receptors, the IC50 was 0.256 nM and the Kb was 0.028 nM.

For the compound `O=C1C(=O)N([C@H]2CCCN(C[C@H]3COc4ccccc4O3)C2)CC1c1ccccc1` (stereo partly drawn) [example 38, 1-((S)-1-(((S)-2,3-Dihydrobenzo[b][1,4]dioxin-2-yl)methyl)piperidin-3-yl)-4-phenylpyrrolidine-2,3-dione], the IC50 against human alpha2A receptors was more than 10 µM; at human alpha2C receptors, 1.54 nM. Further, the Kb is more than 449 nM at human alpha2A receptors and 0.153 nM on human alpha2C receptors.

On human alpha2A receptors, `O=C1c2cncnc2CN1[C@H]1CCCN(C[C@H]2COc3ccccc3O2)C1` [example 23, 6-((S)-1-(((S)-2,3-Dihydrobenzo[b][1,4]dioxin-2-yl)methyl)piperidin-3-yl)-6,7-dihydro-5H-pyrrolo[3,4-d]pyrimidin-5-one] had an IC50 of more than 10 µM and a Kb of more than 449 nM. Further, at human alpha2C receptors, the IC50 worked out at 18 nM and the Kb is 1.81 nM.

On to `Clc1ccc2ncn([C@H]3CCCN(C[C@H]4COc5ccccc5O4)C3)c2c1` [example 89, 6-Chloro-1-((S)-1-(((S)-2,3-dihydrobenzo[b][1,4]dioxin-2-yl)methyl)piperidin-3-yl)-1H-benzo[d]imidazole], for which, on human alpha2A receptors, the IC50 is 9.46 µM and the Kb was determined as 425 nM. Besides, on human alpha2C receptors, the 50% inhibitory concentration (IC50) is less than 0.1 nM and the Kb was less than 0.01 nM.

On human alpha2A receptors, `O=C1c2cccnc2CN1[C@H]1CCCN(C[C@H]2COc3ccccc3O2)C1` [example 10, 6-((S)-1-(((S)-2,3-Dihydrobenzo[b][1,4]dioxin-2-yl)methyl)piperidin-3-yl)-6,7-dihydro-5H-pyrrolo[3,4-b]pyridin-5-one] showed an IC50 of more than 10 µM and a Kb of more than 449 nM. At human alpha2C receptors, the half-maximal inhibitory concentration (IC50) amounted to 3.78 nM and the Kb is 0.379 nM.

Regarding `O=C1c2ncncc2CN1[C@H]1CCCN(C[C@H]2COc3ccccc3O2)C1` [example 78, 6-((S)-1-(((S)-2,3-Dihydrobenzo[b][1,4]dioxin-2-yl)methyl)piperidin-3-yl)-5H-pyrrolo[3,4-d]pyrimidin-7(6H)-one], the IC50 is more than 10 µM on human alpha2A receptors and 256 nM at human alpha2C receptors. The Kb on human alpha2A receptors is more than 449 nM; on human alpha2C receptors, 25.8 nM.
